Test results reported in patent US20230022032A1, “uPAR-TARGETED PHOTOTHERMAL OPTICAL PROBES FOR PHOTOTHERMAL THERAPY” (RIGSHOSPITALET, priority 2019, published 2023).
“Also recorded” adds a separate entry of the source.

Columns and labels:
[1] = In vitro heating of solutions under NIR laser irradiation (FLIR thermal camera); format: physicochemical; details: NIR laser 2 W/cm^2; for maximum temperature in solution / temperature reached in solution: five minutes irradiation; for temperature reached in solution: 228 nmol; for maximum temperature of solution: irradiated for ten minutes
Protocol: The ability of ICG to generate high temperatures when irradiated with NIR light was measured in vitro. Different concentrations (228, 46, 23 and 12 nmol) of unconjugated ICG and ICG-Glu-Glu-AE105 in solution (0.2 g/ml (2-hydroxypropyl)-β-cyclodextrin in water and DMSO) were placed in a plastic cuvette under the laser beam. The laser was turned on for five minutes at 2 W/cm2 and the temperature measured with a thermal camera (FLIR T-440 camera), taking images every 30 seconds. The images were analyzed using the FLIR tools software.
In order to test the ability of ICG-Glu-Glu-AE105 to heat under NIR light, different concentrations of the compound in solution were placed in a plastic cuvette under a laser, at an intensity of 2 W/cm^2. The samples were then irradiated for ten minutes and the temperatures detected with a FLIR camera. For the highest concentration tested, 0.5 mg/ml, temperature increased fast in the first minutes and slower and in a more steady way after that, reaching a maximum temperature of 70.8±3° C. after ten minutes of irradiation. In contrast, lower concentrations reached their maximum peak fast; at five minutes for 0.1 mg/ml (62.7±1.6° C.), and around two to three minutes for 0.05 and 0.025 mg/ml (51.4±0.9 and 40.7±0.4° C. respectively). From that point, temperatures started to decrease most likely due to the irreversible degradation of ICG, which impedes heat generation (Wang et al., 2013).
Different concentrations of ICG in solution were irradiated as it was done for the conjugated dye. […] As expected, the maximum temperature was very similar to the one reached by 0.5 mg/ml of ICG-Glu-Glu-AE105, because a concentration of 0.5 mg/ml of ICG-Glu-Glu-AE105 corresponds to approximately 0.18 mg/ml of ICG alone. […] 0.05 mg/ml of ICG reached a maximum of 68.8±0.7° C. after seven minutes of irradiation, meanwhile 0.025 mg/ml of ICG peaked at three minutes at 50±0.2° C.
5 minutes irradiation trials were also made with reference to testing the ability of ICG-Glu-Glu-AE105 to heat under NIR light. See the set up with the compound in solution placed in a plastic cuvette under a laser beam (intensity 2 W/cm^2) in FIG. 1a. In this case the samples were irradiated for five minutes and the maximum temperatures were recorded with a FLIR camera. (FIG. 1b).
However, it was observed that the heat was mainly localized at the top of the sample and not evenly distributed throughout the solution. […] An important detail observed was the temperature decrease after reaching a certain peak, most likely due to the irreversible degradation of ICG, which impedes heat generation (Wang, Y.-G., Kim, H., Mun, S., Kim, D. & Choi, Y).

[2] = system: subcutaneous U-87 MG.luc2 tumors; experiment: In vivo photothermal therapy (PTT) in subcutaneous mouse model of human glioblastoma; design: species or system mice; details: for median survival: endpoint tumor 1000 mm^3; for highest temperature reached on tumor surface during PTT: 46 nmol injected four hours before PTT, 5 minutes NIR light at 2 W/cm^2
Protocol: The animal experiments were approved by the Danish Animal Welfare Council, Ministry of Justice. For the in vivo studies, U-87 MG.luc2 cells were cultured in Dulbecco's modified eagle medium supplemented with 10% fetal bovine serum and 1% penicillin-streptomycin (Thermo Fisher Scientific) at 37° C. and in 5% CO2. When cells reached 70% confluence, they were harvested and 2-3×10^6 cells in 100 μl of PBS were inoculated into the left flank of NMRI nude female mice (Janvier Labs, France). Animals were left to grow tumors until they reached 300 mm^3 (day −1). From then on, tumors were measured every other day with the use of a caliper, and tumor volume calculated through the formula: (length×width^2)*0.5. When tumors reached 1,000 mm^3, animals were euthanized.
When tumors reached 300 mm^3, mice were divided into 5 groups: ICG-Glu-Glu-AE105 group (mice injected with 46 nmol ICG-Glu-Glu-AE105 four hours before PTT, n=6); ICG group (mice injected with 46 nmol of unconjugated ICG four hours before PTT, n=4); Saline group (mice injected with saline four hours before PTT, n=4); sham group (mice injected with ICG-Glu-Glu-AE105 and no PTT, n=5) and a control group (no injection, no PTT, n=4). Animals were given analgesia (buprenorphin, 0.3 mg/ml) right before the laser treatment and every 6 to 8 hours until deemed necessary. For PTT, animals were anesthetized with sevoflurane as previously described and placed under the laser beam for five minutes at 2 W/cm^2. The tumors were swabbed with glycerol, an index-matching agent, prior to the laser treatment to facilitate light penetration (Deng et al. 2011, Vargas et al., 1999, Simon et al., 2019). The temperatures reached on the tumor surface were detected with a thermal camera, as described for the in vitro experiments.
Animals were bioluminescence-scanned a day before PTT, on PTT day and afterwards every other day until endpoints were reached, using IVIS Lumina XR and acquisition software Living Image (Caliper life Sciences, Hopkinton, Calif., USA). For these bioluminescence scans, luciferin was injected intraperitoneally ([…]) ten minutes before the scan. Animals were then anesthetized as described in the previous sections and placed in the prone position. The excitation filter was set to 710 nm and the emission filter was set on ICG.
The fluorescence scans were performed to detect ICG signal before and after PTT using the Fluobeam®800 NIR-camera as described for the accumulation study.
The Kaplan-Meier method was used to create the survival curves, and they were compared through the log-rank test. The maximum temperatures on tumor surface were compared using one-way ANOVA with Tukey's multiple comparisons test. The fluorescence emitted by ICG measured by the Fluobeam before and after PTT was compared using two-way ANOVA with Sidak's multiple comparisons test. The data was plotted in Prism7 and shown as mean±SEM.
After determining ideal dose and treatment schedule, different groups of mice were set up in order to test the ability of ICG-Glu-Glu-AE105 as a photothermal agent, capable of specifically ablating tumors in vivo. For this, mice were injected subcutaneously with U-87 MG.luc2 cells, a type of glioblastoma cells expressing luciferase, which allows for bioluminescence imaging when luciferin is injected. The bioluminescence signal, detected when the reactive luciferin was injected and oxidized by the enzyme luciferase, serves as a way to determine treatment success and follow tumor growth. […] The timeline for the experiments can be seen on FIG. 3. On baseline (day −1), mice underwent a pre-treatment bioluminescence scan. Following, on treatment day (day 0), mice were injected with either ICG-Glu-Glu-AE105, ICG alone, saline or not injected as it was the case for the control group. Approximately four hours after injection, all groups but sham and control were irradiated for 5 minutes with NIR light at 2 W/cm2, and the temperatures on tumor surface were measured with a FLIR camera. […]

[3] = system: U-87 MG.luc2 tumor tissue; experiment: Tumor response ex vivo: H&E staining and uPAR immunohistochemistry of tumors resected 2 days after PTT; format: in vivo, mice; details: n=2 per group
Protocol: Tumors were resected from n=2 mice per group two days after PTT. Tumors were fixated in formaldehyde overnight, and afterwards conserved in ethanol for their later embedding in paraffin. To perform the histology experiments, tumors were resected in 4 μm slices in a microtome (Thermo Scientific Microm HM355S). The tissue slides were left to dry for at least 1.5 hours, and then heated first at 40 and after at 60° C. Following, slides were submerged in HistoClear to achieve deparaffinization and rehydrated through a series of EtOH to water. For hematoxylin and eosin staining, the tissue slides were stained with hematoxylin for 5 minutes, rinsed and stained with eosin for 3 minutes.
For immunohistochemistry, the rehydrated tissue slides underwent heat-induced epitope retrieval (HIER) by covering the tissue slides with 250 mL citrate buffer (pH=6), and steaming them at 100° C. for 15 minutes. […]
Finally, tumors from mice receiving the different treatments (n=2) were resected at day 2 (after PTT) and H&E stained to confirm changes in tumor morphology due to treatment ex vivo (FIG. 7). […] Finally, macrophages were detected through CD68 staining to observe co-localization with uPAR signal, which could be noted, again, for all viable tumor regions.

[4] = 46 nmol four hours before PTT (5 minutes, 2 W/cm^2)

Row | SMILES | maximum temperature in solution ([1]; 12 nmol) | maximum temperature in solution ([1]; 23 nmol) | temperature reached in solution [1] | maximum temperature of solution ([1]; 0.025 mg/ml in solution) | maximum temperature of solution ([1]; 0.05 mg/ml in solution) | maximum temperature of solution ([1]; 0.1 mg/ml in solution) | median survival [2, 4] | highest temperature reached on tumor surface during PTT [2] | maximum temperature of solution ([1]; 0.5 mg/ml in solution) | tumor growth after PTT ([2]; 46 nmol four hours before PTT, caliper measurement, compared to all the other groups) | complete tumor disappearance after PTT ([2]; n=6, followed until 60 days after PTT) | bioluminescence signal after PTT ([2]; ratio FLUX (day X/day -1), versus all the other groups) | median survival ([2]; sham group: injected, no laser treatment) | H&E staining of tumor tissue [3] | uPAR signal in tumor tissue (immunological staining) [3]
1 | CC1(C)C(/C=C/C=C/C=C/C=C2\N(CCCCS(=O)(=O)O)c3ccc4ccccc4c3C2(C)C)=[N+](CCCCS(=O)(=O)[O-])c2ccc3ccccc3c21 [ICG, indocyanine green] | around 38 °C | below 50 °C | around 80 °C | 50±0.2 °C | 68.8±0.7 °C | 71.4±1.1 °C | 10 days | around 45 °C |  |  |  |  |  |  | 
2 | CC(C)C[C@H](NC(=O)[C@H](Cc1ccc(O)cc1)NC(=O)C(CCCNC(=N)N)NC(=O)C(CO)NC(=O)C(Cc1ccccc1)NC(=O)[C@H](CC1CCCCC1)NC(=O)C(CC(=O)O)NC(=O)C(CCC(=O)O)NC(=O)C(CCC(=O)O)NC(=O)CCCCCN1\C(=C/C=C/C=C/C=C/C2=[N+](CCCCS(=O)(=O)[O-])c3ccc4ccccc4c3C2(C)C)C(C)(C)c2c1ccc1ccccc21)C(=O)N[C@@H](Cc1c[nH]c2ccccc12)C(=O)N[C@@H](CO)C(=O)O (stereo partly drawn) [ICG-Glu-Glu-AE105] |  |  | around 80 °C | 40.7±0.4 °C | 51.4±0.9 °C | 62.7±1.6 °C | 13.5 days | around 52 °C | 70.8±3 °C | delay in tumor growth | one mouse even experienced complete tumor disappearance | reduced signal | 8 days | high degree of cell death; also recorded: tissue disruption and hemorrhage | decrease in uPAR signal
